pIC50: −log10 of the molar value.
Experiments:
[1] = Inhibition of tubulin (unknown origin) assembly preincubated for 30 mins followed by GTP addition by spectrophotometric method; set-up: species or system Homo sapiens
[2] = Inhibition of porcine tubulin assembly measured for 30 mins by UV/visible spectrophotometric method; set-up: species or system Sus scrofa
K562 [3] = test: Cytotoxicity against human K562 cells assessed as growth inhibition after 5 days by MTT assay; assay type: functional, cell-based; conditions: K562, 120 h
CCRF-CEM = test: Cytotoxicity against human CCRF-CEM cells assessed as growth inhibition after 48 hrs by SRB assay; assay type: functional
HL-60(TB) = test: Cytotoxicity against human HL-60(TB) cells assessed as growth inhibition after 48 hrs by SRB assay; assay type: functional; conditions: HL-60, 48 h
K562 [4] = test: Cytotoxicity against human K562 cells assessed as growth inhibition after 48 hrs by SRB assay; assay type: functional; conditions: K562, 48 h
MOLT-4 = test: Cytotoxicity against human MOLT4 cells assessed as growth inhibition after 48 hrs by SRB assay; assay type: functional; conditions: MOLT-4, 48 h
RPMI-8226 = test: Cytotoxicity against human RPMI8226 cells assessed as growth inhibition after 48 hrs by SRB assay; assay type: functional; conditions: RPMI-8226, 48 h
SR = test: Cytotoxicity against human SR cells assessed as growth inhibition after 48 hrs by SRB assay; assay type: functional
A549 = test: Cytotoxicity against human A549 cells assessed as growth inhibition after 48 hrs by SRB assay; assay type: functional; conditions: A549, 48 h
EKVX = test: Cytotoxicity against human EKVX cells assessed as growth inhibition after 48 hrs by SRB assay; assay type: functional
HOP-62 = test: Cytotoxicity against human HOP62 cells assessed as growth inhibition after 48 hrs by SRB assay; assay type: functional; conditions: HOP-62, 48 h
HOP-92 = test: Cytotoxicity against human HOP92 cells assessed as growth inhibition after 48 hrs by SRB assay; assay type: functional; conditions: HOP-92, 48 h
NCI-H226 = test: Cytotoxicity against human NCI-H226 cells assessed as growth inhibition after 48 hrs by SRB assay; assay type: functional; conditions: NCI-H226, 48 h
NCI-H23 = test: Cytotoxicity against human NCI-H23 cells assessed as growth inhibition after 48 hrs by SRB assay; assay type: functional; conditions: NCI-H23, 48 h
NCI-H322M = test: Cytotoxicity against human NCI-H322M cells assessed as growth inhibition after 48 hrs by SRB assay; assay type: functional
NCI-H460 = test: Cytotoxicity against human NCI-H460 cells assessed as growth inhibition after 48 hrs by SRB assay; assay type: functional; conditions: NCI-H460, 48 h
NCI-H522 = test: Cytotoxicity against human NCI-H522 cells assessed as growth inhibition after 48 hrs by SRB assay; assay type: functional; conditions: NCI-H522, 48 h
COLO 205 = test: Cytotoxicity against human COLO205 cells assessed as growth inhibition after 48 hrs by SRB assay; assay type: functional; conditions: COLO 205, 48 h
HCC 2998 = test: Cytotoxicity against human HCC2998 cells assessed as growth inhibition after 48 hrs by SRB assay; assay type: functional; conditions: HCC 2998, 48 h
HCT-116 = test: Cytotoxicity against human HCT116 cells assessed as growth inhibition after 48 hrs by SRB assay; assay type: functional; conditions: HCT-116, 48 h
HCT-15 = test: Cytotoxicity against human HCT15 cells assessed as growth inhibition after 48 hrs by SRB assay; assay type: functional; conditions: HCT-15, 48 h
KM12 = test: Cytotoxicity against human KM12 cells assessed as growth inhibition after 48 hrs by SRB assay; assay type: functional; conditions: KM12, 48 h
SW-620 = test: Cytotoxicity against human SW620 cells assessed as growth inhibition after 48 hrs by SRB assay; assay type: functional; conditions: SW-620, 48 h
SF-268 = test: Cytotoxicity against human SF268 cells assessed as growth inhibition after 48 hrs by SRB assay; assay type: functional; conditions: SF-268, 48 h
SF-295 = test: Cytotoxicity against human SF295 cells assessed as growth inhibition after 48 hrs by SRB assay; assay type: functional; conditions: SF-295, 48 h
SF-539 = test: Cytotoxicity against human SF539 cells assessed as growth inhibition after 48 hrs by SRB assay; assay type: functional; conditions: SF-539, 48 h
SNB-19 = test: Cytotoxicity against human SNB19 cells assessed as growth inhibition after 48 hrs by SRB assay; assay type: functional; conditions: SNB-19, 48 h
SNB-75 = test: Cytotoxicity against human SNB75 cells assessed as growth inhibition after 48 hrs by SRB assay; assay type: functional; conditions: SNB-75, 48 h
U-251 = test: Cytotoxicity against human U251 cells assessed as growth inhibition after 48 hrs by SRB assay; assay type: functional; conditions: U-251, 48 h
LOX IMVI = test: Cytotoxicity against human LOXIMVI cells assessed as growth inhibition after 48 hrs by SRB assay; assay type: functional
M14 = test: Cytotoxicity against human M14 cells assessed as growth inhibition after 48 hrs by SRB assay; assay type: functional; conditions: M14, 48 h
Malme-3M = test: Cytotoxicity against human MALME-3M cells assessed as growth inhibition after 48 hrs by SRB assay; assay type: functional
MDA-MB-435 = test: Cytotoxicity against human MDA-MB-435 cells assessed as growth inhibition after 48 hrs by SRB assay; assay type: functional; conditions: MDA-MB-435, 48 h
SK-MEL-2 = test: Cytotoxicity against human SK-MEL-2 cells assessed as growth inhibition after 48 hrs by SRB assay; assay type: functional; conditions: SK-MEL-2, 48 h
SK-MEL-5 = test: Cytotoxicity against human SK-MEL-5 cells assessed as growth inhibition after 48 hrs by SRB assay; assay type: functional; conditions: SK-MEL-5, 48 h
UACC-257 = test: Cytotoxicity against human UACC257 cells assessed as growth inhibition after 48 hrs by SRB assay; assay type: functional; conditions: UACC-257, 48 h
UACC-62 = test: Cytotoxicity against human UACC62 cells assessed as growth inhibition after 48 hrs by SRB assay; assay type: functional; conditions: UACC-62, 48 h
IGROV-1 = test: Cytotoxicity against human IGROV1 cells assessed as growth inhibition after 48 hrs by SRB assay; assay type: functional; conditions: IGROV-1, 48 h
NCI/ADR-RES = test: Cytotoxicity against human NCI-ADR-RES cells assessed as growth inhibition after 48 hrs by SRB assay; assay type: functional
OVCAR-3 = test: Cytotoxicity against human OVCAR3 cells assessed as growth inhibition after 48 hrs by SRB assay; assay type: functional; conditions: OVCAR-3, 48 h
OVCAR-4 = test: Cytotoxicity against human OVCAR4 cells assessed as growth inhibition after 48 hrs by SRB assay; assay type: functional; conditions: OVCAR-4, 48 h
OVCAR-8 = test: Cytotoxicity against human OVCAR8 cells assessed as growth inhibition after 48 hrs by SRB assay; assay type: functional; conditions: OVCAR-8, 48 h
SK-OV-3 = test: Cytotoxicity against human SKOV3 cells assessed as growth inhibition after 48 hrs by SRB assay; assay type: functional; conditions: SK-OV-3, 48 h
786-0 = test: Cytotoxicity against human 786-0 cells assessed as growth inhibition after 48 hrs by SRB assay; assay type: functional; conditions: 786-0, 48 h
A498 = test: Cytotoxicity against human A498 cells assessed as growth inhibition after 48 hrs by SRB assay; assay type: functional; conditions: A498, 48 h
CAKI-1 = test: Cytotoxicity against human Caki1 cells assessed as growth inhibition after 48 hrs by SRB assay; assay type: functional; conditions: CAKI-1, 48 h
RXF 393 = test: Cytotoxicity against human RXF393 cells assessed as growth inhibition after 48 hrs by SRB assay; assay type: functional; conditions: RXF 393, 48 h
SN12C = test: Cytotoxicity against human SN12C cells assessed as growth inhibition after 48 hrs by SRB assay; assay type: functional
TK-10 = test: Cytotoxicity against human TK10 cells assessed as growth inhibition after 48 hrs by SRB assay; assay type: functional; conditions: TK-10, 48 h
UO-31 = test: Cytotoxicity against human UO31 cells assessed as growth inhibition after 48 hrs by SRB assay; assay type: functional; conditions: UO-31, 48 h
DU-145 = test: Cytotoxicity against human DU145 cells assessed as growth inhibition after 48 hrs by SRB assay; assay type: functional; conditions: DU-145, 48 h
PC-3 = test: Cytotoxicity against human PC3 cells assessed as growth inhibition after 48 hrs by SRB assay; assay type: functional; conditions: PC-3, 48 h
BT-549 = test: Cytotoxicity against human BT549 cells assessed as growth inhibition after 48 hrs by SRB assay; assay type: functional; conditions: BT-549, 48 h
Hs-578T = test: Cytotoxicity against human Hs 578T cells assessed as growth inhibition after 48 hrs by SRB assay; assay type: functional
MCF7 = test: Cytotoxicity against human MCF7 cells assessed as growth inhibition after 48 hrs by SRB assay; assay type: functional; conditions: MCF7, 48 h
MDA-MB-231 = test: Cytotoxicity against human MDA-MB-231 cells assessed as growth inhibition after 48 hrs by SRB assay; assay type: functional; conditions: MDA-MB-231, 48 h
MDA-MB-468 = test: Cytotoxicity against human MDA-MB-468 cells assessed as growth inhibition after 48 hrs by SRB assay; assay type: functional; conditions: MDA-MB-468, 48 h
T47D = test: Cytotoxicity against human T47D cells assessed as growth inhibition after 48 hrs by SRB assay; assay type: functional

Compound: COc1ccc2c(c1)[C@@H](NC(C)=O)CCc1cc(OC)c(OC)c(OC)c1-2
- pIC50 [1]: 6.15

Compound: COc1ccc(/C=C\c2cc(OC)c(OC)c(OC)c2)cc1OP(=O)(O)O [FOSBRETABULIN DISODIUM]
- pIC50 [2]: 6.05
- pIC50 (K562 [3]): 6.14

Compound: COc1cc2c(c(OC)c1OC)-c1cc3c(cc1COC2)OCO3
- pIC50 [2]: < 5.00
- pIC50 (K562 [3]): 4.07
- GI50 (CCRF-CEM): 350 nM
- GI50 (HL-60(TB)): 390 nM
- GI50 (K562 [4]): 210 nM
- GI50 (MOLT-4): 470 nM
- GI50 (RPMI-8226): 500 nM
- GI50 (SR): 170 nM
- GI50 (A549): 440 nM
- GI50 (EKVX): 780 nM
- GI50 (HOP-62): 690 nM
- GI50 (HOP-92): 7080 nM
- GI50 (NCI-H226): 2750 nM
- GI50 (NCI-H23): 790 nM
- GI50 (NCI-H322M): 2000 nM
- GI50 (NCI-H460): 380 nM
- GI50 (NCI-H522): 390 nM
- GI50 (COLO 205): 340 nM
- GI50 (HCC 2998): 490 nM
- GI50 (HCT-116): 370 nM
- GI50 (HCT-15): 480 nM
- GI50 (KM12): 360 nM
- GI50 (SW-620): 400 nM
- GI50 (SF-268): 1320 nM
- GI50 (SF-295): 330 nM
- GI50 (SF-539): 350 nM
- GI50 (SNB-19): 680 nM
- GI50 (SNB-75): 460 nM
- GI50 (U-251): 480 nM
- GI50 (LOX IMVI): 870 nM
- GI50 (M14): 230 nM
- GI50 (Malme-3M): > 100000 nM
- GI50 (MDA-MB-435): 50 nM
- GI50 (SK-MEL-2): 560 nM
- GI50 (SK-MEL-5): 210 nM
- GI50 (UACC-257): 3390 nM
- GI50 (UACC-62): 790 nM
- GI50 (IGROV-1): 950 nM
- GI50 (NCI/ADR-RES): 360 nM
- GI50 (OVCAR-3): 250 nM
- GI50 (OVCAR-4): 2190 nM
- GI50 (OVCAR-8): 520 nM
- GI50 (SK-OV-3): 470 nM
- GI50 (786-0): 500 nM
- GI50 (A498): 450 nM
- GI50 (CAKI-1): 56200 nM
- GI50 (RXF 393): 200 nM
- GI50 (SN12C): 1050 nM
- GI50 (TK-10): 5130 nM
- GI50 (UO-31): 3980 nM
- GI50 (DU-145): 370 nM
- GI50 (PC-3): 540 nM
- GI50 (BT-549): 540 nM
- GI50 (Hs-578T): 430 nM
- GI50 (MCF7): 400 nM
- GI50 (MDA-MB-231): 1200 nM
- GI50 (MDA-MB-468): 170 nM
- GI50 (T47D): 25700 nM

Compound: COc1ccc(/C=C\c2cc(OC)c(OC)c(OC)c2)cc1O [COMBRETASTATIN A4]
- pIC50 (K562 [3]): 6.00

Compound: COc1cc2c(c(OC)c1OC)-c1ccc([N+](=O)[O-])cc1COC2
- pIC50 [2]: < 5.00
- pIC50 (K562 [3]): 4.80

Source: ChEMBL document CHEMBL4002643, “Tubulin-binding dibenz[c,e]oxepines: Part 2. Structural variation and biological evaluation as tumour vasculature disrupting agents” (Bioorg Med Chem, 2017)
